Assay results as given in paper PMC8388125, “Kinetic and Structural Characterization of the Self-Labeling Protein Tags HaloTag7, SNAP-tag, and CLIP-tag” (Biochemistry, 2021).
Numbering of substitutions follows the chain as printed. Where “and” joins values, the source holds several entries; their conditions need not be identical. Equal entries are not always repeated.

Tests used:
[1] = target: T1, SNAP^C145A (Homo sapiens, UniProt P16455, A127T/A154D/C145A/C150Q/C62A/G131K/G132T/G153L/K125A/K32I/L33F/M134L/N157G/Q115S/Q116H/R128A/R135S/S151G/S152D/S159E); assay: Affinity of SNAP^C145A for nonfluorescent substrates via FP competition assay against CP-TMR; assay type: binding
T1 construct: made in house; host or cells: E. coli BL21(DE3)-pLysS
T1 sequence (P16455 1-182 K32I/L33F/C62A/Q115S/Q116H/K125A/A127T/R128A/G131K/G132T/M134L/R135S/C145A/C150Q/S151G/S152D/G153L/A154D/N157G/S159E limits assumed): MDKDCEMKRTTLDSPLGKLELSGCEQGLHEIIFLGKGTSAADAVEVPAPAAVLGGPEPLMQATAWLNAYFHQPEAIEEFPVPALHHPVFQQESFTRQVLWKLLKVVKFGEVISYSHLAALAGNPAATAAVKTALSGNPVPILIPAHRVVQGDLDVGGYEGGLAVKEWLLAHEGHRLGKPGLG
Method: Binding affinities of SNAP^C145A for BG, CP, BG-Ac, CP-Ac, and BC-Ac were obtained as previously described for HT7 by titrating 5 μM protein and 50 nM CP-TMR against nonfluorescent substrate concentrations ranging from 150 nM to 1.5 mM. Experimental conditions and data analysis were identical despite the fact that 1 mM DTT was added to the buffer and the assay was performed at room temperature.

[2] = target: T2, HT7^D106A (Rhodococcus sp., UniProt P59336, A155T/A167V/A224E/C128F/C176G/D106A/D78G/E160K/E257K/G292T/H272N/K175M/K195N/L47V/L88M/N227D/P291S/S2A/S58T/T264A/V172T/Y273L/Y87F); assay: Affinity of HT7^D106A for CA substrates by fluorescence polarization; assay type: binding; conditions: HT7^D106A
T2 construct: made in house; host or cells: E. coli BL21(DE3)-pLysS
T2 sequence (P59336 other isoform, or with tags, fused parts or gaps with the stated changes): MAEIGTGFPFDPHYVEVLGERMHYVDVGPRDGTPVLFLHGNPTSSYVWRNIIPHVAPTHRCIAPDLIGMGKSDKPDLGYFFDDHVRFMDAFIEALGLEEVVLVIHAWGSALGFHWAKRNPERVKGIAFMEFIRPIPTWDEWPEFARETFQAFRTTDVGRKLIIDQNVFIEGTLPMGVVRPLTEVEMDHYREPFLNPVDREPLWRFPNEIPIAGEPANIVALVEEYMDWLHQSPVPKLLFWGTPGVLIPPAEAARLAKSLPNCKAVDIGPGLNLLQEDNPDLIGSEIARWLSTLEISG
Method: Binding affinities of HT7^D106A or HOB^D106A for chloroalkane (CA) substrates were determined by fluorescence polarization (FP, eq 1) measurements using a microplate reader (Spark20M, Tecan Group AG, Männedorf, Switzerland). The fluorescent substrates (10 nM) were titrated against different protein concentrations (0–250 μM) in activity buffer supplemented with 0.5 g/L bovine serum albumin (BSA). Assays were performed in black low-volume nonbinding 384-well plates (Corning Inc., Corning, NY) with a final volume of 20 μL. Obtained FP values were averaged and fitted to a single-site binding model (eq 2) to estimate Kd values for each fluorescent substrate. The FP value of each dye fully reacted with the native HT7 was used to improve fitting of the upper plateau of the curves by adding an extra data point at a protein concentration of 0.1 M. [drawing 1] 1 where FP is the fluorescence polarization, I∥ is the fluorescence intensity parallel to the excitation light polarization, I⊥ is the fluorescence intensity perpendicular to the excitation light polarization, and G is the grating factor (G = I∥/I⊥). [drawing 2] 2 where FPmin is the fluorescence polarization of the free fluorophore (lower plateau), FPmax is the maximal fluorescence polarization of fully bound fluorophore (upper plateau), Kd is the dissociation constant, and [protein] is the protein concentration.
Free binding energies were calculated from Kd values according to eq 4: [drawing 4] 4 where ΔG is the free binding energy, R is the universal gas constant, T is the temperature, and Kd is the dissociation constant.

[3] = target: T3, HaloTag7 (HT7) (Rhodococcus sp., UniProt P59336, A155T/A167V/A224E/C128F/C176G/D78G/E160K/E257K/G292T/H272N/K175M/K195N/L47V/L88M/N227D/P291S/S2A/S58T/T264A/V172T/Y273L/Y87F); assay: HT7 labeling kinetics via stopped flow (fluorescence anisotropy); assay type: biochemical
T3 construct: made in house; host or cells: E. coli BL21(DE3)-pLysS
T3 sequence (P59336 other isoform, or with tags, fused parts or gaps with the stated changes): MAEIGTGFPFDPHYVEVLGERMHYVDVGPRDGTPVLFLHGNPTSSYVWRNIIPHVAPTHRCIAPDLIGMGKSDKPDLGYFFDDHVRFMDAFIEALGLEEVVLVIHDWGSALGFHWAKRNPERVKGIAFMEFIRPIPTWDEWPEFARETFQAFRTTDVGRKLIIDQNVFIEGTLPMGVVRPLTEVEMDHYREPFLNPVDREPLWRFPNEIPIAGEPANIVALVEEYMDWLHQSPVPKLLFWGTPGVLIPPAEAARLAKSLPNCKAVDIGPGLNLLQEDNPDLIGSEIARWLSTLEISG
Method: Labeling kinetics of HT7 with CA-TMR, CA-JF549, CA-CPY, CA-LIVE580, and CA-JF669 and labeling kinetics of HOB with CA-TMR were measured by recording fluorescence anisotropy changes over time using a BioLogic SFM-400 stopped-flow instrument (BioLogic Science Instruments, Claix, France) in a single-mixing configuration at 37 °C. HT7 protein and substrates in activity buffer were mixed in a 1:1 stoichiometry to reach a recordable speed for these fast reactions and to increase the information content of the traces. Concentrations were varied from 0.125 to 1 μM. The anisotropy of the free substrate was measured to obtain a baseline.
(§1) Kinetic stopped-flow data were preprocessed using a custom R script.[36],[37] Recorded pretrigger time points were removed, and time points were adjusted to start at time zero. Values from replicates were averaged. The anisotropy of the free dye was calculated by averaging anisotropy values of the baseline measurements. Preprocessed data were fitted to a kinetic model (eqs 5 and 6) described by differential eqs 7–10 using the DynaFit software.[38] The anisotropy of the free dye and the mixing delay of the stopped-flow machine were set as fixed offset and delay parameters in DynaFit. It was assumed that the protein substrate complex and the reacted product are contributing equally to the anisotropy signal. […] Standard deviations (normal distribution verified) and confidence intervals of fitted parameters were estimated with the Monte Carlo method[39] with standard settings (N = 1000, 5% worst fits discarded). In the case of SNAP kinetics with BG-TMR, the substrate concentration was fitted by DynaFit to rule out quantification errors of the BG-quenched fluorophore. Accurate fitting of the concentration was ensured by including conditions in which protein is limiting and no maximum FP value was reached.

[4] = target: T4, hAGT (human O^6-alkylguanine-DNA alkyltransferase) (Homo sapiens, UniProt P16455); assay: hAGT labeling kinetics via microplate reader (FP over time); assay type: biochemical
T4 construct: StrepTag-II (N); enterokinase cleavage site (N); His10 (C); made in house; host or cells: E. coli BL21(DE3)-pLysS
T4 sequence (P16455 1-207): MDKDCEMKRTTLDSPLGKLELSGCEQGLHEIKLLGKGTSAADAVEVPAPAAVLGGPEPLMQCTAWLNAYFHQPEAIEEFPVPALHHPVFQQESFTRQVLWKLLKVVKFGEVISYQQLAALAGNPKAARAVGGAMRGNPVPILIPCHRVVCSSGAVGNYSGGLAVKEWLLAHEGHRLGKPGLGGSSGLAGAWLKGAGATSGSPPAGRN
Method: (§2) Labeling kinetics of SNAP and CLIP substrates were measured by recording FP over time using a microplate reader in a manner analogous to that of HT7 labeling kinetics described above with the following changes. The fluorescent substrate concentration was fixed to 20 nM, and protein concentrations were varied from 15 to 900 nM. Measurements were performed in SNAP-FP buffer.
(§3) Kinetic data from microplate reader assays were fitted to a simplified kinetic model (eq 13) described by differential eqs 14–16 using DynaFit. The dead time of the measurements and baseline FP value were put in as fixed parameters. Standard deviations (normal distribution verified) and confidence intervals of fitted parameters were estimated with the Monte Carlo method with standard settings (N = 1000, 5% worst fits discarded). In the case of BG, CP, and BC kinetics, the substrate concentration was fitted by DynaFit to rule out quantification errors of the BG, CP, or BC fluorophores. Accurate fitting of the concentration was ensured by including conditions under which protein is limiting and no maximum FP value was reached.

[5] = target: T5, SNAP-tag (SNAP) (Homo sapiens, UniProt P16455, A127T/A154D/C150Q/C62A/G131K/G132T/G153L/K125A/K32I/L33F/M134L/N157G/Q115S/Q116H/R128A/R135S/S151G/S152D/S159E); assay: SNAP labeling kinetics via microplate reader (FP over time); assay type: biochemical; conditions: SNAP, plate reader, kinetic model 1
T5 construct: made in house; host or cells: E. coli BL21(DE3)-pLysS
T5 sequence (P16455 1-182 K32I/L33F/C62A/Q115S/Q116H/K125A/A127T/R128A/G131K/G132T/M134L/R135S/C150Q/S151G/S152D/G153L/A154D/N157G/S159E limits assumed): T1 sequence (P16455 1-182 K32I/L33F/C62A/Q115S/Q116H/K125A/A127T/R128A/G131K/G132T/M134L/R135S/C145A/C150Q/S151G/S152D/G153L/A154D/N157G/S159E limits assumed) with A145C
Method: as §2, §3

[6] = target: T5, SNAP-tag (SNAP); assay: SNAP labeling kinetics via stopped flow (fluorescence anisotropy); assay type: biochemical; conditions: model 2
Method: Labeling kinetics of SNAP with BG-TMR were measured via stopped-flow in a manner analogous to that for HT7 kinetics described above; however, the final substrate concentration was fixed at 2 μM, and the protein concentration was varied from 1.875 to 50 μM. The activity buffer was supplemented with 1 mM DTT.
as §1

[7] = target: T6, CLIP-tag (CLIP) (Homo sapiens, UniProt P16455, A121V/A127T/A154D/C150Q/C62A/G131N/G132T/G153S/K125A/K32I/L33F/M134L/M60I/N157P/Q115S/Q116H/R128A/R135D/S151G/S152D/S159L/Y114E); assay: CLIP labeling kinetics via microplate reader (FP over time); assay type: biochemical; conditions: CLIP, plate reader, kinetic model 1
T6 construct: made in house; host or cells: E. coli BL21(DE3)-pLysS
T6 sequence (P16455 1-182 K32I/L33F/M60I/C62A/Y114E/Q115S/Q116H/A121V/K125A/A127T/R128A/G131N/G132T/M134L/R135D/C150Q/S151G/S152D/G153S/A154D/N157P/S159L limits assumed): T1 sequence (P16455 1-182 K32I/L33F/C62A/Q115S/Q116H/K125A/A127T/R128A/G131K/G132T/M134L/R135S/C145A/C150Q/S151G/S152D/G153L/A154D/N157G/S159E limits assumed) with M60I, Y114E, A121V, K131N, S135D, A145C, L153S, G157P, E159L
Method: as §2, §3

For CC(=O)NCc1ccc(COc2nccc(N)n2)cc1 [BC-Ac], the “times lower affinity than for BG-Ac” value [1] was 5 times and the Kd ([1]; FP competition against CP-TMR, room temperature) was 416 µM.

In the case of CN(C)c1ccc2c(c1)C(C)(C)C1=CC(=[N+](C)C)C=CC1=C2c1cc(C(=O)NCCOCCOCCCCCCCl)ccc1C(=O)[O-] [CA-CPY, chloroalkane-PEG-carbopyronine], the “fold decrease in affinity of the 5-substituted compared to the 6-substituted rhodamine substrate” value [2] is reported as 22.7 fold, the Kd [3] is reported as 0.046 µM and the “k2 (± S.D.)” value ([3]; HT7, stopped flow, model 2) is reported as 9.9 s-1 and 9.86 (± 0.73) s-1. The “k-1 (± S.D.)” value ([3]; HT7, stopped flow, model 2) was 7.60 (± 0.98) s-1.

In the case of CN(C)c1ccc2c(-c3cc(C(=O)NCc4ccc(COc5cc(Cl)nc(N)n5)cc4)ccc3C(=O)[O-])c3ccc(=[N+](C)C)cc-3oc2c1 [CP-TMR], the “times slower labeling of hAGT than of SNAP” value ([4]; hAGT vs SNAP) is reported as 20 times, the “kapp (value ± standard deviation)” value ([4]; hAGT, plate reader, model 1) is reported as “(3.13 ± 0.01) × 10^3 M^–1 s^–1” and the “kapp (value ± standard deviation)” value [5] is reported as “(7.69 ± 0.01) × 10^4 M^–1 s^–1”. The “fold higher k–1 than BG-TMR” value [6] was 8.8 fold, the “k2 (± S.D.)” value [6] was 1.58 (± 0.04) s-1 and the “k-1 (± S.D.)” value [6] was 8.96 (± 0.71) s-1. For the same compound, the “kapp (value ± standard deviation)” value [7] was “(7.22 ± 0.04) × 10^0 M^–1 s^–1”.
